Reference: ChEMBL document CHEMBL1201862, “PubChem BioAssay data set” (2004)
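48-hour exposure; five concentrations; linearly interpolated endpoints. At the GI50, growth is halved.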 The source made the active and inactive calls. Cut-off read from the data, not from the text of the source: active = GI50 up to about 1.1 µM and inactive = higher.

How the values were obtained:
Assay in all cases: inhibition of tumour cell growth, NCI panel, 48 h
DMS-114 = test system: DMS-114
DLD-1 = test system: DLD-1
DMS-273 = test system: DMS-273
KM-20L2 = test system: KM-20L2
M19-MEL = test system: M19-MEL
SNB-78 = test system: SNB-78
XF498 = test system: XF498
HOP-18 = test system: HOP-18
RXF 631 = test system: RXF 631

Measured: GI50

Cc1ccc(NC(=O)CC/C(CC(=O)C(C)(C)C)=N/NC(=O)C(N)=O)cc1C
inactive: DMS-114 > 100 µM | DLD-1 > 100 µM | DMS-273 > 100 µM | KM-20L2 > 100 µM | M19-MEL > 100 µM | SNB-78 > 100 µM | XF498 > 100 µM | HOP-18 > 100 µM | RXF 631 > 100 µM

CCOc1ccc2c(c1)[n+]([O-])c(-c1ccc(Br)cc1)c(N)[n+]2[O-]
inactive: DMS-114 30.4 µM | DLD-1 99.5 µM | DMS-273 39.4 µM | KM-20L2 47 µM | M19-MEL 59.2 µM | SNB-78 > 100 µM | XF498 49.9 µM | HOP-18 57.4 µM | RXF 631 56.4 µM
